From patent US12343319B2, “Compositions and methods for treatment of diseases and disorders” (Atai Therapeutics Inc., priority 2023, dated 2025)

Columns and labels:
[1] = system: Male Sprague-Dawley rats; assay: Rat forced swim test, immobility frequency; type: in vivo; details: 10 mg/kg, i.p., once 24 hours prior to the swim test
Procedure: Male Sprague-Dawley rats were placed individually in clear acrylic swim chambers (40 cm height×20.3 cm diameter) filled to 16 cm for a 15-minute pre-swim session on day 1 and filled to 30 cm for a 5-minute swim test session 24 hours later. Rats (n=10 per treatment group) were administered compound 2-1 (3, 10, 30 mg/kg, i.p., 1 mL/kg, based on weight of the free base) or vehicle (40% (w/v) 2-HPBCD in water, i.p.) at 23.5, 16 and 0.5 hours prior to the swim test. The rapid-acting antidepressant, ketamine (10 mg/kg, i.p.), was included in the study as a positive control condition and injected once 24 hours prior to the swim test.

[2] = system: primary cortical rat neurons; assay: Synaptogenesis assay in primary cortical rat neurons; type: cell-based
Procedure: Pregnant rats for this study were purchased from a commercial breeder. Primary cortical neurons from E17/E18 rat pups were isolated and seeded in 96-well plates. Cells were treated with compound 2-2, FGF (Reference item) or vehicle. After incubation with the respective treatment, cortical neurons were stained for synapsin and tubulin using immunofluorescence.
Stained cells were imaged with the Cytation 5 Multimode reader. From each well, 9 images were taken at 10× magnification. Digital images from cortical neurons were analyzed for the following parameter using a software-supported automatic quantification method: Number of synapsin positive objects. Analysis was performed using Gen5 software. The experiment was run in n=10 technical replicates per condition. Vehicle control and FGF were included on each plate totaling n=20 technical replicates.
Primary cortical neurons were prepared from timed pregnant Spargue Dawley rats at E17/E18. Animals were sacrificed (see section 3.3.1) and embryos were dissected in Calcium and Magnesium free Hanks Balanced Salt Solution (CMF-HBSS) containing 15 mM HEPES and 10 mM NaHCO3, pH 7.2. Embryos were decapitated, skin and skull gently removed and hemispheres were separated. After removing meninges and brain stem, the cortices were isolated, chopped with a sterile razor blade in Chop solution (Hibernate-E without Calcium containing 2% B-27) and digested in 2 mg/mL papain (Worthington) dissolved in Hibernate-E without Calcium for 30 minutes (±5 min) at 30° C. The cortices of the embryos from the two rats were pooled and processed together.
Cortices were triturated for 10-15 times with a fire-polished silanized Pasteur pipette in Hibernate-E without Calcium containing 2% B-27, 0.01% DNaseI, 1 mg/mL BSA, and 1 mg/mL Ovomucoid Inhibitor. Undispersed pieces were allowed to settle by gravity for 3 min and the supernatant was centrifuged for 3 min at 228 g. […]
Cells were counted in a hemacytometer and seeded in nutrition medium on poly-D-lysine pre-coated 96-well plates at a density of 1.5×10^4 cells/well. […]

[3] = biological target: T1, 5-HT2A receptor (Mus musculus, UniProt P35363); assay: 5-HT2A receptor binding in mouse frontal cortical tissue; details: for Ki: Mean (Mouse), mouse frontal cortical tissue
[4] = biological target: T1, 5-HT2A receptor; parameters: endogenous in cells; host or cells: adult male C57BL/6J mice, in vivo; details: i.p., same assay, Klein et al., 2021; cited from earlier work
[5] = biological target: T2, 5-HT2A receptors in the mouse frontal cortex (Mus musculus, UniProt P35363); assay: Ex vivo 5-HT2A receptor occupancy ([3H]cimbi-36) in mouse frontal cortex; details: mouse, 3 mg/kg IP, 15 minutes post dosing
T2 construct: Left frontal cortices from each animal were homogenized individually; from tissue

[6] = system: Male Sprague-Dawley rats; assay: 5-HT2A/2C/1A-mediated behaviors, locomotor activity and body temperature in rats; type: in vivo, rat; details: 1 mg/kg SC
Procedure: Forty (40) male Sprague-Dawley rats were used as test subjects in this study. Animals were dosed with vehicle (IP), one of 3 doses of compound 2-2 (3 mg/kg, 10 mg/kg, 30 mg/kg IP) or psilocybin (1 mg/kg SC) and, following the appropriate pre-treatment time, were placed in locomotor activity boxes and continuously monitored for a 1 hr period with data collected into 10-minute time bins. Animals were visually assed for overt behavioral signs, including biomarkers for 5-HT2A receptor target engagement (i.e. wet dog shakes, back muscle contractions and stereotypic behaviors), 5-HT2C receptor activation (yawning, penile grooming), and 5-HT1A behaviors (forepaw treading, hindlimb abduction). Additional behavioral and somatic signs characteristic of 5-HT syndrome (i.e. tremor, salivation, flat body posture) also were measured. Core body temperature change was determined at 0 hr (pre-dose), 1 hr, and 2 hr. Simultaneously, the spontaneous locomotor activity of the rats was measured using automated Med Associates activity test chambers. Activity data collected included total distance travelled, rearing counts, and ambulatory episodes. LMA was measured for a total of 2 hours (i.e. the first hour to include visual assessments of behavioral signs, and the second hour the animals will not be assessed for behavioral signs) with data collected into 10 minute time bins. The tracking arena measured 17″ W×17″ L×12″ H, sensor bars were secured 1″ above the floor to track distance travelled, and a second set of sensor bars were placed ˜5″ above the floor to measure vertical movement and rearing activity. The parameters set on the tracking software were as follows: resolution −50 ms, box size −4 beams, resting delay −500 ms, and ambulatory trigger −3.
Table 14 outlines receptor activity and related behavioral and/or physiological measures.

[7] = system: Male WKY rats; assay: Sleep-wake behavior, EEG power, body temperature and locomotor activity in WKY rats; type: in vivo, rat; details: over 6 hours post dose, WKY rats, IP
Procedure: Male WKY rats (n=7, 289-388 g at the start of dosing) were housed in groups of 2-3 animals per cage with standard housing conditions. For implantation of the EEG electrodes and radio transmitter, the animals were anesthetized with isoflurane (2-5% in oxygen at 11/min) throughout the procedure. The scalp, neck and right flank were cleared of hair using clippers and cleaned using diluted Hibitane (chlorhexidine, 50% (v/v) in water). A non-steroidal anti-inflammatory agent was administered (carprofen 5 mg/kg, s.c.) and the animals placed on a homeothermic blanket (37° C.) with the head fixed in a stereotaxic frame. Incisions were made in the scalp and neck, as well as in the right flank. Blunt dissection of the abdominal muscle was then made to gain access to the peritoneal cavity. A radio transmitter (HD-S02, Data Sciences International) was implanted in the peritoneal cavity and secured to the muscle wall with non-absorbable sutures. The wires of the transmitter were passed using a 19G needle through the muscle wall and then sub-dermally to the scalp to act as Electroencephalogram (EEG)/Electromyograph (EMG) electrodes. The scalp was cleared of connective tissue and two craniotomies were made with a trepanning drill (fronto-parietal coordinates; Bregma+2 mm anterior, midline+1.0 mm lateral and Lambda 0 mm, +1.5 mm lateral). The positive EEG electrode was attached to the anterior craniotomy and the negative EEG electrode to the posterior craniotomy. Both electrodes were secured in place using a suitable adhesive agent (cyanoacrylate gel, RS components). A second set of electrodes were sutured into the nuchal muscle to act as EMG electrodes. All incisions were closed using absorbable suture.
All animals were allowed to recover in a warm environment and given 5 ml of saline subcutaneously (s.c.). Animals were kept singly in the cage until the next day, then pair housed for the duration of post-surgical recovery (minimum 7 days). During the recovery period, the rats received 5 days of standard post-operative care with no further experimental procedures until the pre-operative body weight was regained. The animals were maintained on a 12/12 hour light dark cycle (08:00 am lights on) after the surgery. Home cages and post-operative cages contained bedding and nesting material, along with environmental enrichment such as wooden chew-sticks and plastic tunnels.
On test days, ˜60 minutes after lights-on, animals were placed in recording boxes similar to their home-cages, except that environmental enrichment was restricted to a large bundle of nesting and bedding material, to avoid interference with the telemeter signals. Then, data acquisition was initiated for confirmation of signal quality. EEG and EMG data were acquired using intraperitoneal HD-S02 transmitters (DSI, New Brighton, MN) and Spike2 software (CED). EEG and EMG signals were digitized 500 samples/second, amplified 1000× and bandpass filtered at 0.5-100 Hertz (Hz). After 60 minutes of habituation, each animal was briefly removed from its box and dosed via the intraperitoneal (i.p.) route in a volume of 2 mL/kg. Test conditions included saline vehicle, psilocybin (10 mg/kg) positive control, compound 2-1 at 3, 10 and 30 mg/kg and compound 2-2 at 10, 17 and 30 mg/kg. Doses were based on the molecular weight of the free bases. compound 2-1 and compound 2-2 dosing solutions were prepared in 40% (w/v) hydroxypropyl-beta-cyclodextrin. After dosing, animals were immediately put back into the recording boxes, the experimenter left the room, and recordings continued uninterrupted for 23 hours. At the end of the recording session, the transmitters were turned off and the animals were returned to their home cages. All animals received all treatment conditions in a pseudo randomized cross-over fashion with a minimum washout period of 7 days between doses.
All data was aligned to zero (the time of dosing), with epochs defined as non-overlapping 10-second time segments. […]

T1 sequence (P35363 whole entry): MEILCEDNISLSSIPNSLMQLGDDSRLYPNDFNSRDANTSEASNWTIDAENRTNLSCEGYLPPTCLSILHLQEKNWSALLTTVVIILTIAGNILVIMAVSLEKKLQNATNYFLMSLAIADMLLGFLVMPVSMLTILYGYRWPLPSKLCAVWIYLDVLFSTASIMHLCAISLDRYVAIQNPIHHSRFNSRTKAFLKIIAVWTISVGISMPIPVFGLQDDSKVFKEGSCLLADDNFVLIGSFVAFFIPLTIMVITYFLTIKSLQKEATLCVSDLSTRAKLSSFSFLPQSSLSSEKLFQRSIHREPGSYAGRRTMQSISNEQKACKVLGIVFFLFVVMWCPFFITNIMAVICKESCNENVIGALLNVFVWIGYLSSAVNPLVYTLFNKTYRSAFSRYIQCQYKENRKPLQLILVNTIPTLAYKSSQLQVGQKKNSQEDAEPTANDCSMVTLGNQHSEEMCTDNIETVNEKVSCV
T2 sequence (P35363 whole entry): as above

For CNC1(c2ccccc2Cl)CCCCC1=O (stereo not drawn) [Ketamine, ketamine, reference compound], the “immobility compared to vehicle” value [1] was “significantly decreased”.
In the case of CN(C)CCc1c[nH]c2ccccc12 [N,N-DMT], the “synaptogenesis compared to VC (synapsin positive objects normalized to tubulin III area)” value ([2]; 1 μM (highest concentration), DIV1-DIV10) is reported as “significant increase” and the “synaptogenesis compared to VC (synapsin positive objects normalized to tubulin III area)” value ([2]; lower concentrations (below 1 μM)) is reported as “no significance”.
Compound CN(C)CCc1c[nH]c2cccc(O)c12 [Psilocin, psilocin] has an IC50 [3] of 99 nM, a Ki ([3]; Ki) of 45.1 nM and a Ki ([3]; pKi) of 45.7 nM. The “HTR ED50” value [4] was 0.17 mg/kg.
For CN(C)CCc1c[nH]c2cccc(OP(=O)(O)O)c12 [Psilocybin, psilocybin, reference compound], the receptor occupancy at 3 mg/kg ([5]; read-out: % Receptor Occupancy (RO)) was 19%, the remaining activity at 3 mg/kg ([5]; read-out: % of Control Binding) was 81% and the “distance travelled during the first 20 minutes of the 2 hour test” value [6] was “decreased”. The “total locomotor activity measures” value [6] was “did not affect” and the body temperature [7] was “↓(for 6 h)”.
